Source: ChEMBL document CHEMBL5143699, “Identification of novel indole derivatives as highly potent AMPK activators with anti-diabetic profiles” (Bioorg Med Chem Lett, 2022)
Active and inactive are the calls of the source. The calls are words filed in the database; no cut-off is given here.

How the values were obtained:
[1] = target: AMPK alpha2/beta2/gamma1 (Homo sapiens) (UniProt P54646+O43741+P54619); test: Activation of human recombinant AMPK A2/B2/G1 assessed as increase in AMPK phosphorylation using FL-peptide as substrate incubated for 120 mins by EZ reader method; assay type: protein-complex assay
[2] = Protein binding in serum (unknown origin) assessed as unbound fraction by equilibrium dialysis assay; assay type: ADME, cell-free
Cytochrome P450 2C19 = Cytochrome P450 2C19 (Homo sapiens, UniProt P33261); test: Inhibition of CYP2C19 in human liver microsomes using mephenytoin as substrate; assay type: ADME, Microsome
[3] = target: T1, 5'-AMP-activated protein kinase subunit beta-2 (Homo sapiens, UniProt O43741); test: Activation of recombinant AMPK-beta2 (unknown origin) assessed as increase in AMPK phosphorylation by DELFIA fluorescence assay
T1 sequence (O43741 whole entry): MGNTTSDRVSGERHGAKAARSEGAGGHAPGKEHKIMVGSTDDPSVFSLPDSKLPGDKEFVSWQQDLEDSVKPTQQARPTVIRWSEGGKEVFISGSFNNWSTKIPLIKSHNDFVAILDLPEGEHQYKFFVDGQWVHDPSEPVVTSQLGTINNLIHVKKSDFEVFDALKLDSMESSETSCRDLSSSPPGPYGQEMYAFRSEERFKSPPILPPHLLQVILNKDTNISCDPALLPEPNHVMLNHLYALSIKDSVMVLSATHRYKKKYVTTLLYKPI

[4] = […] of the compound in rat liver at 1 mg/kg, po or 0.5 mg/kg, iv; assay type: ADME, organism-based
Cytochrome P450 2C9 = Cytochrome P450 2C9 (Homo sapiens, UniProt P11712); test: Inhibition of CYP2C9 in human liver microsomes using tolbutamide as substrate; assay type: ADME, Microsome
Cytochrome P450 1A2 = target: T2, Cytochrome P450 1A2 (Homo sapiens, UniProt P05177); test: Inhibition of CYP1A2 in human liver microsomes using 7-ethoxyresorufin as substrate; assay type: ADME, Microsome
T2 sequence (P05177 whole entry): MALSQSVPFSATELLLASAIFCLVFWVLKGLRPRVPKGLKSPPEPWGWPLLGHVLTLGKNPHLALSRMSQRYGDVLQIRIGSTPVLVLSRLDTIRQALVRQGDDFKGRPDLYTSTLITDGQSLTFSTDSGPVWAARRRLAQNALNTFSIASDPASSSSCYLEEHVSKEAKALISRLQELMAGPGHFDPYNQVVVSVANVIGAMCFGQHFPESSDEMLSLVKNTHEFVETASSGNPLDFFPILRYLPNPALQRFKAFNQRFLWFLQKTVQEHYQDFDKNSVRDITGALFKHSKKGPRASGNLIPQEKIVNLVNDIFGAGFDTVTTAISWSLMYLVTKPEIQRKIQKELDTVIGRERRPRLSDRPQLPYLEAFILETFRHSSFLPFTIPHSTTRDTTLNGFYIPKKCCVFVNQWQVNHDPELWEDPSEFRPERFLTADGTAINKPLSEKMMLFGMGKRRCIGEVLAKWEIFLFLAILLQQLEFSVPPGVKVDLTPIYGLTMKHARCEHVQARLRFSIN

[5] = Metabolic stability in human liver microsomes assessed as compound remaining measured after 30 mins; assay type: ADME, Microsome; settings: read-out: Stability
[6] = […] of the compound in rat muscle at 1 mg/kg, po or 0.5 mg/kg, iv; assay type: ADME, organism-based
Cytochrome P450 3A4 = Cytochrome P450 3A4 (Homo sapiens, UniProt P08684); test: Inhibition of CYP3A4 in human liver microsomes using terfenedine as substrate; assay type: ADME, Microsome
[7] = Cmax in rat at 1 mg/kg, po or 0.5 mg/kg, iv; assay type: ADME, organism-based; set-up: dose 1 mg/kg, route po; settings: in vivo
Cytochrome P450 2D6 = Cytochrome P450 2D6 (Homo sapiens, UniProt P10635); test: Inhibition of CYP2D6 in human liver microsomes using dextromethorphan as substrate; assay type: ADME, Microsome
[8] = Metabolic stability in rat liver microsomes assessed as compound remaining measured after 30 mins; assay type: ADME, Microsome; settings: read-out: Stability
[9] = AUC in rat at 1 mg/kg, po; assay type: ADME, organism-based; set-up: dose 1 mg/kg, route po; settings: in vivo
[10] = target: T3, 5'-AMP-activated protein kinase (Mus musculus) (UniProt Q5EG47+Q8BRK8+Q6PAM0+O54950+Q91WG5+Q9R078+Q8BGM7); test: In vivo activation of AMPK in mouse skeletal muscle assessed as increase in ACC phosphorylation level at 0.08 to 6.75 mg/kg,po by ELISA; assay type: functional, organism-based; settings: Skeletal muscle tissue, dose 0.08-6.75 mg/kg, DDE = dose-dependent effect
[11] = target: T3, 5'-AMP-activated protein kinase (Mus musculus); test: In vivo activation of AMPK in mouse liver assessed as increase in AMPKalpha phosphorylation level at 0.08 to 6.75 mg/kg,po by western blot method; assay type: functional, organism-based; settings: dose 0.08-6.75 mg/kg, DDE = dose-dependent effect
Mus musculus [12] = test: Antidiabetic activity against type 2 diabetic KKAy mouse model assessed as increase in Akt phosphorylation in skeletal muscle at 1.5 to 6 mg/kg,po bid measured on 25 to 26 days after insulin injection by ELISA; assay type: functional, organism-based; settings: dose 1.5-6 mg/kg, time 25-26 day
Mus musculus [13] = test: Antidiabetic activity against type 2 diabetic KKAy mouse model assessed as decrease in lipid accumulation in liver at 1.5 to 6 mg/kg,po bid measured on 25 to 26 days after insulin injection; assay type: functional, organism-based; settings: dose 1.5-6 mg/kg, time 25-26 day
Mus musculus [14] = test: Antidiabetic activity against po dosed type 2 diabetic KKAy mouse model assessed as acute glucose lowering effect measured for 1 to 6 hrs; assay type: functional, organism-based; settings: time 1-6 hrs, DDE = dose-dependent effect
Mus musculus [15] = test: Antidiabetic activity against type 2 diabetic KKAy mouse model assessed as decrease in HbA1c level administrated orally bid measured after 21 days of administration by automatic analyzer; assay type: functional, organism-based; settings: route po, time 21.0 day, DDE = dose-dependent effect
Mus musculus [16] = test: Antidiabetic activity against type 2 diabetic KKAy mouse model assessed as decrease in plasma glucose level administrated orally bid measured after 21 days of administration by automatic analyzer; assay type: functional, organism-based; settings: route po, time 21.0 day, DDE = dose-dependent effect
[17] = target: T4, 5'-AMP-activated protein kinase subunit beta-1 (Rattus norvegicus, UniProt P80386); test: Activation of rat liver AMPK-beta1 using SAMS peptide as substrate incubated for 10 mins by microplate reader assay; assay type: tissue-based
T4 sequence (P80386 whole entry): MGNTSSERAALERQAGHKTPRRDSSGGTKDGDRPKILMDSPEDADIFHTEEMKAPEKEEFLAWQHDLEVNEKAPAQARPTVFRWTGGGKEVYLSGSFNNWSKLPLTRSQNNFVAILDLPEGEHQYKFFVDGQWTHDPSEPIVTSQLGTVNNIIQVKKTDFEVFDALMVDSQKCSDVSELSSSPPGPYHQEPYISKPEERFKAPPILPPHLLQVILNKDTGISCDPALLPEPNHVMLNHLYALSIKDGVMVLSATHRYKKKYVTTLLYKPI

AMPK alpha2/beta2/gamma1 (Homo sapiens), sequence (P54619 whole entry, looked up, one chain of several): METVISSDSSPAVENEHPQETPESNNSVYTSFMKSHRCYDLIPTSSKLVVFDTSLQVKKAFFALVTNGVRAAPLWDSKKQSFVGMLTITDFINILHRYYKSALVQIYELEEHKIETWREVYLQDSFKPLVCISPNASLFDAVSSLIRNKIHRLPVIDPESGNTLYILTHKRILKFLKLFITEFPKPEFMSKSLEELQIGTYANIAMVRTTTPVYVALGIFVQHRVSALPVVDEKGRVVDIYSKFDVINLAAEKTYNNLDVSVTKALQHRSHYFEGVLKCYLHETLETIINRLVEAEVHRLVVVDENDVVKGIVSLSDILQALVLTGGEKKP
AMPK alpha2/beta2/gamma1 (Homo sapiens), sequence (P54646 whole entry, looked up, one chain of several): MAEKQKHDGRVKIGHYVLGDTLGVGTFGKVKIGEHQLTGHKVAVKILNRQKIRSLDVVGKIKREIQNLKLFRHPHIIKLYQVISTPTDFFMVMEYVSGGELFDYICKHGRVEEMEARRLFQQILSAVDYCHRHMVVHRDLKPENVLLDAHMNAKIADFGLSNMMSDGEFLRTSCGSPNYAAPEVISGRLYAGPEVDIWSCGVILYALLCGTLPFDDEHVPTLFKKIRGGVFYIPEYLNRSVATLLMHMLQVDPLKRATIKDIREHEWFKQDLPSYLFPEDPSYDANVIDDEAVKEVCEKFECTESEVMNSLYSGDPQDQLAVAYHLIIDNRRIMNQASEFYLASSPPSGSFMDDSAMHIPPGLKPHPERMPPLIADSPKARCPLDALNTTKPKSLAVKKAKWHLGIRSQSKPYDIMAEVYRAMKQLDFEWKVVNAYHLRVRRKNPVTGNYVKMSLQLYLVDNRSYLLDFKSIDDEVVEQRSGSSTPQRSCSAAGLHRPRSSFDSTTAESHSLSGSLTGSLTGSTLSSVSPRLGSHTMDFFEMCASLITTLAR
Cytochrome P450 2C19, sequence (P33261 whole entry): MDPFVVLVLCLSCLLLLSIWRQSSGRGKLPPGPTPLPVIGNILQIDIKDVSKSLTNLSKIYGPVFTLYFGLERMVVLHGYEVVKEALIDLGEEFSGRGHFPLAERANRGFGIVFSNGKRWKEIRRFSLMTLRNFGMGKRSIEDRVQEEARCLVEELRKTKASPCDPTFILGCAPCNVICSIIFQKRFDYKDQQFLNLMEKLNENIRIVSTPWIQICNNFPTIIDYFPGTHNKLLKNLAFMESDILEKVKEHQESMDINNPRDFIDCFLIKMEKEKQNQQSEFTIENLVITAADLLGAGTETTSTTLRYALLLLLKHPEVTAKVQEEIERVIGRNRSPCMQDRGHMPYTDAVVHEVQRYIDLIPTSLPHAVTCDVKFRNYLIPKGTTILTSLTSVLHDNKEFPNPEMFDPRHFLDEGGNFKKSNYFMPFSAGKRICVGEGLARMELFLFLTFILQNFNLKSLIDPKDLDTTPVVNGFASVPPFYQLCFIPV
Cytochrome P450 2C9, sequence (P11712 whole entry): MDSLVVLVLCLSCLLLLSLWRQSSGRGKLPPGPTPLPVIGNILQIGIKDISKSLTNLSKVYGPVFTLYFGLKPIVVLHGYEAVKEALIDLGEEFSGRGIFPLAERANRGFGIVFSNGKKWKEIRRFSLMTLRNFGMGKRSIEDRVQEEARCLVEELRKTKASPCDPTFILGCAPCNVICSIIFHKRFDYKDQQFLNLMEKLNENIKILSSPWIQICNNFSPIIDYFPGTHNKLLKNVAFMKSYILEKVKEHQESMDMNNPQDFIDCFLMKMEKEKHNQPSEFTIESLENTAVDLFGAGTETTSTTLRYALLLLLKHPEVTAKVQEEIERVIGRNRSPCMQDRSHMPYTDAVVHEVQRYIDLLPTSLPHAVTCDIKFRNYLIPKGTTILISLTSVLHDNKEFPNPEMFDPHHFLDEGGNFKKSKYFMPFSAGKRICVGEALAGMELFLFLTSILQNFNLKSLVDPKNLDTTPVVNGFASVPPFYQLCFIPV
Cytochrome P450 3A4, sequence (P08684 whole entry): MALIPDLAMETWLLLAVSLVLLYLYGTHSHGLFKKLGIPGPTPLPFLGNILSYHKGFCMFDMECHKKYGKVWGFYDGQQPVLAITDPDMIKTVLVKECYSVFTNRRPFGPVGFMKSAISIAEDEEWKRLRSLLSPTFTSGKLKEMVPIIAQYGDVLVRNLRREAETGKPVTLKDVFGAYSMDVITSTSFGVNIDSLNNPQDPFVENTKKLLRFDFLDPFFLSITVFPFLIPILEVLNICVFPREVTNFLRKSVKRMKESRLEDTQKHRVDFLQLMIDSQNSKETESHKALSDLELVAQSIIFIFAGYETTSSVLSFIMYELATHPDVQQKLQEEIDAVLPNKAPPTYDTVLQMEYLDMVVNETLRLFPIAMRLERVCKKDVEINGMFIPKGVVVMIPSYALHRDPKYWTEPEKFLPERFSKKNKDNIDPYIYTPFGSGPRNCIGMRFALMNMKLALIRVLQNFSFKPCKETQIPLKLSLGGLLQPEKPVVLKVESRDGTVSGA
Cytochrome P450 2D6, sequence (P10635 whole entry): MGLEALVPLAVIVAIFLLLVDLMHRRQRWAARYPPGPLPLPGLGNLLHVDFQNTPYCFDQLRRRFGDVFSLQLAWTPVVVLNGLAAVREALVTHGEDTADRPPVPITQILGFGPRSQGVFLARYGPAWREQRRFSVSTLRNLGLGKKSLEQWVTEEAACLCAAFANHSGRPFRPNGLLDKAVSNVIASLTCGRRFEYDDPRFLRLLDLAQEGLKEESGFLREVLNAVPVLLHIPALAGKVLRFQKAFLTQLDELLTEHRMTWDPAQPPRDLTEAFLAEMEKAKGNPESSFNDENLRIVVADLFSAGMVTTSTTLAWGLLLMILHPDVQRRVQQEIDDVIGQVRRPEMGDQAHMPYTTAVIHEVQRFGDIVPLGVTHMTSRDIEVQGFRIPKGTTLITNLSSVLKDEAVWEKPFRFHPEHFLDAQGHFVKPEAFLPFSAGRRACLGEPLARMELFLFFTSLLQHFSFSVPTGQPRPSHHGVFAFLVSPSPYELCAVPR

SMILES: O=C(c1ccc(-c2ccc(-c3nc4cc(O[C@@H]5CO[C@H]6[C@@H]5OC[C@H]6O)[nH]c4cc3F)cc2)cc1)N1CCCC1
- EC150 ([1]; filed as activator): 0.0018 µM
- fraction unbound [2]: 0.01
- IC50 (Cytochrome P450 2C19): 7.4 µM

SMILES: O=C1NC2SC(Cl)=C(c3ccc4c(c3O)CCCC4)C2C(O)=C1c1ccccc1 (stereo unspecified)
- EC50 [3]: 1.3 µM

SMILES: O[C@@H]1CO[C@H]2[C@@H]1OC[C@H]2Oc1cc2nc(-c3ccc(-c4ccccc4)cc3)c(F)cc2[nH]1
- EC150 ([1]; filed as activator): 0.017 µM

SMILES: CS(C)(=O)=Nc1ccc(-c2ccc(-c3nc4cc(O[C@@H]5CO[C@H]6[C@@H]5OC[C@H]6O)[nH]c4cc3F)cc2)nc1
- Kp [4]: 2.19
- IC50 (Cytochrome P450 2C9): > 10 µM
- IC50 (Cytochrome P450 1A2): > 10 µM
- remaining at 0.5 h [5]: > 99%
- EC150 ([1]; filed as activator): 0.0034 µM
- Kp [6]: 0.98
- fraction unbound [2]: 0.072
- IC50 (Cytochrome P450 3A4): > 10 µM
- Cmax [7]: 44.8 ng/mL
- IC50 (Cytochrome P450 2D6): > 10 µM
- remaining at 0.5 h [8]: 83%
- AUC [9]: 111 ng·h/mL
- IC50 (Cytochrome P450 2C19): > 10 µM

SMILES: CS(C)(=O)=Nc1ccc(-c2ccc(-c3nc4cc(O[C@@H]5CO[C@H](CO)C5)[nH]c4cc3F)cc2)cc1
- Kp [4]: 7.14
- remaining at 0.5 h [5]: 94%
- Activity [10]: Dde
- Activity [11]: Dde
- EC150 ([1]; filed as activator): 0.001 µM
- Kp [6]: 0.63
- Activity (Mus musculus [12]): Active
- fraction unbound [2]: 0.011
- Activity (Mus musculus [13]): Active
- Activity (Mus musculus [14]): Dde
- Activity (Mus musculus [15]): Dde
- Cmax [7]: 130 ng/mL
- Activity (Mus musculus [16]): Dde
- remaining at 0.5 h [8]: 90%
- AUC [9]: 810 ng·h/mL

SMILES: N#Cc1c(O[C@@H]2CO[C@H]3[C@@H]2OC[C@H]3O)[nH]c2ccc(-c3ccc(N4CCOCC4)cc3)cc12
- EC150 ([1]; filed as activator): 0.38 µM

SMILES: COCCOc1ccc(-c2ccc(-c3nc4cc(O[C@@H]5CO[C@H]6[C@@H]5OC[C@H]6O)[nH]c4cc3F)cc2)cc1
- EC150 ([1]; filed as activator): 0.0073 µM
- fraction unbound [2]: 0.002

SMILES: Cn1c(O[C@@H]2CO[C@H]3[C@@H]2OC[C@H]3O)c(C#N)c2cc(-c3ccc(N4CCOCC4)cc3)c(Cl)cc21
- EC150 [1]: > 100 µM

SMILES: O[C@@H]1CO[C@H]2[C@@H]1OC[C@H]2Oc1cc2nc(-c3ccc(N4CCOCC4)cc3)c(Cl)cc2[nH]1
- EC150 ([1]; filed as activator): 0.0019 µM

SMILES: N#Cc1c(O[C@@H]2CO[C@H]3[C@@H]2OC[C@H]3O)[nH]c2cc(Cl)c(-c3ccc(N4CCOCC4)cc3)cc12
- EC150 ([1]; filed as activator): 0.039 µM

SMILES: N#Cc1c(O[C@@H]2CO[C@H]3[C@@H]2OC[C@H]3O)[nH]c2cc(Cl)c(-c3ccc(N4CCOCC4)cc3)nc12
- EC150 ([1]; filed as activator): 0.087 µM

SMILES: COc1ccc(-c2ccc(-c3nc4cc(O[C@@H]5CO[C@H]6[C@@H]5OC[C@H]6O)[nH]c4cc3F)cc2)cc1
- EC150 ([1]; filed as activator): 0.011 µM

SMILES: O=S1(=Nc2ccc(-c3ccc(-c4nc5cc(O[C@@H]6CO[C@H]7[C@@H]6OC[C@H]7O)[nH]c5cc4F)cc3)cc2)CCCC1
- Kp [4]: 3.34
- remaining at 0.5 h [5]: 98%
- EC150 ([1]; filed as activator): 0.002 µM
- Kp [6]: 0.67
- fraction unbound [2]: 0.01
- Cmax [7]: 43 ng/mL
- remaining at 0.5 h [8]: 86%
- AUC [9]: 251 ng·h/mL
- IC50 (Cytochrome P450 2C19): 3.7 µM

SMILES: COCCOc1ccc(-c2ccc(-c3nc4cc(O[C@@H]5CO[C@H]6[C@@H]5OC[C@H]6O)[nH]c4cc3F)cc2)cn1
- EC150 ([1]; filed as activator): 0.016 µM

SMILES: N#CC1=C(O)C2C(c3ccc(-c4ccccc4O)cc3)=CSC2NC1=O (stereo unspecified)
- EC50 [17]: 0.8 µM

SMILES: CS(C)(=O)=Nc1ccc(-c2ccc(-c3nc4cc(O[C@@H]5CO[C@H]6[C@@H]5OC[C@H]6O)[nH]c4cc3F)cc2)cc1
- Kp [4]: 2.4
- IC50 (Cytochrome P450 2C9): > 10 µM
- IC50 (Cytochrome P450 1A2): > 10 µM
- remaining at 0.5 h [5]: > 99%
- EC150 ([1]; filed as activator): 0.001 µM
- Kp [6]: 0.61
- fraction unbound [2]: 0.016
- IC50 (Cytochrome P450 3A4): > 10 µM
- Cmax [7]: 68.7 ng/mL
- IC50 (Cytochrome P450 2D6): > 10 µM
- remaining at 0.5 h [8]: 91%
- AUC [9]: 288 ng·h/mL
- IC50 (Cytochrome P450 2C19): > 10 µM

SMILES: O[C@@H]1CO[C@H]2[C@@H]1OC[C@H]2Oc1cc2nc(-c3ccc(N4CCOCC4)cc3)c(F)cc2[nH]1
- EC150 ([1]; filed as activator): 0.0053 µM
